Tests used:
[1] = target: T1, SIK1 kinase (aa1-303, Thermo Fisher) (Homo sapiens, UniProt P57059); experiment: Biochemical activities determination for SIK1 protein (TR-FRET); conditions: 110 uM ATP, 0.5 μM STK1 substrate
T1 construct: SIK1 kinase (aa1-303, Thermo Fisher); purchased Thermo Fisher
Experimental: 1. Biochemical Activities Determination for SIK1 Protein
(§1) Compounds were tested for inhibition of SIK1 kinase (aa1-303, Thermo Fisher) in assays based on the time-resolved fluorescence-resonance energy transfer (TR-FRET) methodology. The assays were carried out in 384-well low volume white plates in a reaction mixture containing SIK1 kinase, 110 uM ATP, 0.5 μM STK1 substrate and 0-10 μM compound in buffer containing 25 mM Tris, 0.01% Trition X-100, 0.5 mM EGTA, 5 mM MgCl2, 2.5 mM DTT, pH=7.5. The kinase was incubated with compounds for 60 minutes at room temperature and the reaction was initiated by the addition of ATP and STK1 substrate. After reaction at room temperature for 180 minutes, an equal volume of stop/detection solution was added according to the manufacture's instruction (CisBio Bioassays). The stop/detection solution contained STK Antibody-Cryptate and XL665-conjugated streptavidin (Cat: 62ST1PEC, Cisbio) in Detection Buffer (Cat: 62SDBRDF, Cisbio). Plates were sealed and incubated at room temperature for overnight, and the TR-FRET signals (ratio of fluorescence emission at 665 nm over emission at 620 nm with excitation at 337 nm wavelength) were recorded on a PHERAstar FS plate reader (BMG Labtech). Phosphorylation of STK1 substrate led to the binding of STK Antibody-Cryptate to the biotinylated SIK1 substrate, which places fluorescent donor (Eu^3+ crypate) in close proximity to the accepter (Streptavidin-XL665), thus resulting in a high degree of fluorescence resonance energy transfer from the donor fluorophore (at 620 nm) to the acceptor fluorophore (at 665 nm). […] The IC50 for each compound was derived from fitting the data to the four-parameter logistic equation by Dotmatics.

[2] = target: T2, SIK2 kinase (full length, Thermo Fisher) (Homo sapiens, UniProt Q9H0K1); experiment: Biochemical activities determination for SIK2 protein (TR-FRET); conditions: 80 uM ATP, 0.5 μM substrate
T2 construct: SIK2 kinase (full length, Thermo Fisher); purchased Thermo Fisher
T2 sequence (Q9H0K1 whole entry): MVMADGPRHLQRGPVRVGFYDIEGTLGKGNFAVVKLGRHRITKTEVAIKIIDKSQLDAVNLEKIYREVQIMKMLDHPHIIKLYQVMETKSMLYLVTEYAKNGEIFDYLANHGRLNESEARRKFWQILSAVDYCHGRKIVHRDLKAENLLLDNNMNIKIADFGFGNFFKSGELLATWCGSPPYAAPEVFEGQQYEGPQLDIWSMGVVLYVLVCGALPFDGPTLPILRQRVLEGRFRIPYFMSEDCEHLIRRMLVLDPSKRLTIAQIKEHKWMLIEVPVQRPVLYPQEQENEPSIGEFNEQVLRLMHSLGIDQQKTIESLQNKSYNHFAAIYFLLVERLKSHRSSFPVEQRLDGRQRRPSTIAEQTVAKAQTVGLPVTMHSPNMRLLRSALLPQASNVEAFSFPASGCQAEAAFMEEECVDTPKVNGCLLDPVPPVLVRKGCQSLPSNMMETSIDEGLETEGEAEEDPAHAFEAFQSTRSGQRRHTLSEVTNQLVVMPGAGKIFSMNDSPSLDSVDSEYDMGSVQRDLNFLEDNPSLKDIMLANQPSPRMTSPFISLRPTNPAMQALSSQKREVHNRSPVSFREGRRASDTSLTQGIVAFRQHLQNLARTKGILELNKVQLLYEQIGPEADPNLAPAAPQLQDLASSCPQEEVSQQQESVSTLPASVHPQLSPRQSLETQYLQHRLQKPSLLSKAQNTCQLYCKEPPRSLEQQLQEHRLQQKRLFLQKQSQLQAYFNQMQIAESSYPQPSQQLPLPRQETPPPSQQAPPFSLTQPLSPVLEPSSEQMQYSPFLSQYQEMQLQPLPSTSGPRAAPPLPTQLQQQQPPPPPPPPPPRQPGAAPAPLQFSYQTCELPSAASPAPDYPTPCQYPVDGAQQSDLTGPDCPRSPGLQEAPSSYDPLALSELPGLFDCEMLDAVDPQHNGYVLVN
Experimental: 2. Biochemical Activities Determination for SIK2 Protein
as §1, with “of SIK2” for “of SIK1”, “kinase (full length,” for “kinase (aa1-303,”, “containing SIK2” for “containing SIK1”, “kinase, 80” for “kinase, 110”, “μM […]” for “μM STK1”, “biotinylated STK1” for “biotinylated SIK1”

[3] = target: T3, SIK3 kinase (aa59-365, Thermo Fisher) (Homo sapiens, UniProt Q9Y2K2); experiment: Biochemical activities determination for SIK3 protein (TR-FRET); conditions: 125 uM ATP, 0.5 μM STK1 substrate
T3 construct: SIK3 kinase (aa59-365, Thermo Fisher); purchased Thermo Fisher
T3 sequence (Q9Y2K2 59-365): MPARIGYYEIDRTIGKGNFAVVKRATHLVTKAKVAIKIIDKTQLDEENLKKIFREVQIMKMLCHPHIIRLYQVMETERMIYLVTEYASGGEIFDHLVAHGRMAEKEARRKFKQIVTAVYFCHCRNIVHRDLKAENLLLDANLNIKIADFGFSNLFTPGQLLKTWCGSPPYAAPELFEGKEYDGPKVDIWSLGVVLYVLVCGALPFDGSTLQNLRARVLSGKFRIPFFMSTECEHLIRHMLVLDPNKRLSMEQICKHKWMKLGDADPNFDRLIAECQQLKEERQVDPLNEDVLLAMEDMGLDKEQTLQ
Experimental: 3. Biochemical Activities Determination for SIK3 Protein
Compounds were tested for inhibition of SIK3 kinase (aa59-365, Thermo Fisher) in assays based on the time-resolved fluorescence-resonance energy transfer (TR-FRET) methodology. The assays were carried out in 384-well low volume white plates in a reaction mixture containing SIK3 kinase, 125 uM ATP, 0.5 μM STK1 substrate and 0-10 μM compound in buffer containing 25 mM Tris, 0.01% Trition X-100, 0.5 mM EGTA, 5 mM MgCl2, 2.5 mM DTT, PH=7.5. The kinase was incubated with compound for 60 minutes at room temperature and the reaction was initiated by the addition of ATP and STK1 substrate. After reaction at room temperature for 180 minutes, an equal volume of stop/detection solution was added according to the manufacture's instruction (CisBio Bioassays). The stop/detection solution contained STK Antibody-Cryptate and XL665-conjugated streptavidin (Cat: 62ST1PEC, Cisbio) in Detection Buffer (Cat: 62SDBRDF, Cisbio). Plates were sealed and incubated at room temperature for overnight, and the TR-FRET signals (ratio of fluorescence emission at 665 nm over emission at 620 nm with excitation at 337 nm wavelength) were recorded on a PHERAstar FS plate reader (BMG Labtech). Phosphorylation of STK1 substrate led to the binding of STK Antibody-Cryptate to the biotinylated STK1 substrate, which places fluorescent donor (Eu^3+ crypate) in close proximity to the accepter (Streptavidin-XL665), thus resulting in a high degree of fluorescence resonance energy transfer from the donor fluorophore (at 620 nm) to the acceptor fluorophore (at 665 nm). […] The IC50 for each compound was derived from fitting the data to the four-parameter logistic equation by Dotmatics.

T1 sequence (P57059 1-303): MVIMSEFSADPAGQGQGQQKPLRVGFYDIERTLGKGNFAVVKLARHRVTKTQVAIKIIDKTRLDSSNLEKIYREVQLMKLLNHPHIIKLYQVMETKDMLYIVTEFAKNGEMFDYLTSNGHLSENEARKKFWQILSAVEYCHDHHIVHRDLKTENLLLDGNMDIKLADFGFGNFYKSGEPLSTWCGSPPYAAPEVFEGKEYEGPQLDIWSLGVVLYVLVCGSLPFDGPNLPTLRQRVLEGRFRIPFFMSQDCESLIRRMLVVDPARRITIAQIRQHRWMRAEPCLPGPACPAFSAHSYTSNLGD

| IC50 [1] [nM] | IC50 [2] [nM] | IC50 [3] [nM] | SMILES |
| --- | --- | --- | --- |
| 676 | 8 | 57 | O=C1c2c(cc(-c3coc4cc(-c5cnn(C6CCNCC6)c5)ccc34)cc2OC(F)F)CCN1CC(F)(F)F [Compound 43, 8-(difluoromethoxy)-6-(6-(1-(piperidin-4-yl)-1H-pyrazol-4-yl)benzofuran-3-yl)-2-(2,2,2-trifluoroethyl)-3,4-dihydroisoquinolin-1 (2H)-one] |
| 538 | 5.2 | 45 | CN1CC(n2cc(-c3ccc4c(-c5cc6c(c(OC(F)F)c5)C(=O)N(CC(F)(F)F)CC6)coc4c3)cn2)C1 [Compound 44, 8-(difluoromethoxy)-6-(6-(1-(1-methylazetidin-3-yl)-1H-pyrazol-4-yl)benzofuran-3-yl)-2-(2,2,2-trifluoroethyl)-3,4-dihydroisoquinolin-1 (2H)-one] |
| 560 | 9.8 | 28 | N#CCCN1CC(n2cc(-c3ccc4c(-c5cc6c(c(OC(F)F)c5)C(=O)N(CC(F)(F)F)CC6)coc4c3)cn2)C1 [Compound 45, 3-(3-(4-(3-(8-(difluoromethoxy)-1-oxo-2-(2,2,2-trifluoroethyl)-1,2,3,4-tetrahydroisoquinolin-6-yl)benzofuran-6-yl)-1H-pyrazol-1-yl)azetidin-1-yl) propanenitrile] |
| 430 | 7.8 | 36.1 | CN1CCC(n2cc(-c3ccc4c(-c5cc6c(c(OC(F)F)c5)C(=O)N(CC(F)(F)F)CC6)coc4c3)cn2)CC1 [Compound 46, 8-(difluoromethoxy)-6-(6-(1-(1-methylpiperidin-4-yl)-1H-pyrazol-4-yl)benzofuran-3-yl)-2-(2,2,2-trifluoroethyl)-3,4-dihydroisoquinolin-1 (2H)-one] |
| 335 | 3 | 33 | CN1CCC(n2cc(-c3ccc4c(-c5cc6c(c(OC(F)F)c5)C(=O)N(CC(F)(F)F)CC6)coc4c3)cn2)C1 (stereo not drawn) [Compound 47, 8-(difluoromethoxy)-6-(6-(1-(1-methylpyrrolidin-3-yl)-1H-pyrazol-4-yl)benzofuran-3-yl)-2-(2,2,2-trifluoroethyl)-3,4-dihydroisoquinolin-1 (2H)-one] |
| 524 | 11 | 63 | O=C1c2c(cc(-c3coc4cc(-c5cnn(C6CCNC6)c5)ccc34)cc2OC(F)F)CCN1CC(F)(F)F (stereo not drawn) [Compound 48, 8-(difluoromethoxy)-6-(6-(1-(pyrrolidin-3-yl)-1H-pyrazol-4-yl)benzofuran-3-yl)-2-(2,2,2-trifluoroethyl)-3,4-dihydroisoquinolin-1 (2H)-one] |
| 337 | 11 | 25 | COc1cc(-c2coc3cc(-c4cnn(C5CCOC5)c4)ccc23)cc2c1C(=O)N(CC(F)(F)F)CC2 (stereo not drawn) [Compound 49, 8-methoxy-6-(6-(1-(tetrahydrofuran-3-yl)-1H-pyrazol-4-yl)benzofuran-3-yl)-2-(2,2,2-trifluoroethyl)-3,4-dihydroisoquinolin-1 (2H)-one] |
| 347 | 17 | 34 | COc1cc(-c2coc3cc(-c4cnn(C5CCOCC5)c4)ccc23)cc2c1C(=O)N(CC(F)(F)F)CC2 [Compound 50, 8-methoxy-6-(6-(1-(tetrahydro-2H-pyran-4-yl)-1H-pyrazol-4-yl)benzofuran-3-yl)-2-(2,2,2-trifluoroethyl)-3,4-dihydroisoquinolin-1 (2H)-one] |
| 317 | 3.7 | 26 | COc1cc(-c2coc3cc(-c4cnn(C5CCN(C)C5)c4)ccc23)cc2c1C(=O)N(CC(F)(F)F)CC2 (stereo not drawn) [Compound 51, 8-methoxy-6-(6-(1-(1-methylpyrrolidin-3-yl)-1H-pyrazol-4-yl)benzofuran-3-yl)-2-(2,2,2-trifluoroethyl)-3,4-dihydroisoquinolin-1 (2H)-one] |
| 212 | 4.9 | 23 | COc1cc(-c2coc3cc(-c4cnn(C5CCN(C)CC5)c4)ccc23)cc2c1C(=O)N(CC(F)(F)F)CC2 [Compound 52, 8-methoxy-6-(6-(1-(1-methylpiperidin-4-yl)-1H-pyrazol-4-yl)benzofuran-3-yl)-2-(2,2,2-trifluoroethyl)-3,4-dihydroisoquinolin-1 (2H)-one] |
| 294 | 2.8 | 19 | COc1cc(-c2coc3cc(-c4cnn(C5CN(C)C5)c4)ccc23)cc2c1C(=O)N(CC(F)(F)F)CC2 [Compound 53, 8-methoxy-6-(6-(1-(1-methylazetidin-3-yl)-1H-pyrazol-4-yl)benzofuran-3-yl)-2-(2,2,2-trifluoroethyl)-3,4-dihydroisoquinolin-1 (2H)-one] |
| 326 | 6.9 | 19 | COc1cc(-c2coc3cc(-c4cnn(C5CN(CCC#N)C5)c4)ccc23)cc2c1C(=O)N(CC(F)(F)F)CC2 [Compound 54, 3-(3-(4-(3-(8-methoxy-1-oxo-2-(2,2,2-trifluoroethyl)-1,2,3,4-tetrahydroisoquinolin-6-yl)benzofuran-6-yl)-1H-pyrazol-1-yl)azetidin-1-yl) propanenitrile] |
| 301 | 3.9 | 18 | CN1CCC(n2cc(-c3ccc4c(-c5cc6c(c(OC(F)F)c5)C(=O)N(CC#N)CC6)coc4c3)cn2)CC1 [Compound 55, 2-(8-(difluoromethoxy)-6-(6-(1-(1-methylpiperidin-4-yl)-1H-pyrazol-4-yl)benzofuran-3-yl)-1-oxo-3,4-dihydroisoquinolin-2 (1H)-yl) acetonitrile] |
| 315 | 2.6 | 15 | CN1CCC(n2cc(-c3ccc4c(-c5cc6c(c(OC(F)F)c5)C(=O)N(CC#N)CC6)coc4c3)cn2)C1 (stereo not drawn) [Compound 56, 2-(8-(difluoromethoxy)-6-(6-(1-(1-methylpyrrolidin-3-yl)-1H-pyrazol-4-yl)benzofuran-3-yl)-1-oxo-3,4-dihydroisoquinolin-2 (1H)-yl) acetonitrile] |
| 405 | 2.7 | 17 | CN1CC(n2cc(-c3ccc4c(-c5cc6c(c(OC(F)F)c5)C(=O)N(CC#N)CC6)coc4c3)cn2)C1 [Compound 57, 2-(8-(difluoromethoxy)-6-(6-(1-(1-methylazetidin-3-yl)-1H-pyrazol-4-yl)benzofuran-3-yl)-1-oxo-3,4-dihydroisoquinolin-2 (1H)-yl) acetonitrile] |

From patent US20260085053A1, “BENZOFURAN DERIVATIVES AS SIK INHIBITORS AND THE USE THEREOF” (BEONE MEDICINES I GMBH, priority 2023, published 2026)
